# Assay: gradient 5% acetonitrile 3 min, to 50% in 2 min, to 85% in 15 min, held 3 min, 100 µL/min
# Conditions: column: Zorbax Extend-C18 2.1 x 50 mm; eluents: water / acetonitrile, 0.1% formic acid
# Method in brief: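 Retention times of pure standards were taken from adduct peaks that were selected by computer and manually inspected. Over 3 months, mixtures of ~100 molecules were run by HPLC–quadrupole time-of-flight mass spectrometry in positive and negative ionization mode. The Zorbax Extend-C18 column (2.1 × 50 mm, 1.8 μm) ran at 100 μL/min in water and acetonitrile, each containing 0.1% formic acid, with 40 μL dead volume and 900 μL dwell volume.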
row,SMILES,RP-LC retention time [s]
1,CC(=O)N1CCC(C(=O)NCc2ccccc2)(N(C(=O)c2ccc(C)cc2)C2CCCC2)CC1,942
2,CCCn1c(CCNC(=O)c2ccc(F)c(F)c2)nc2cccnc21,683
3,CCC1Oc2ccc(S(=O)(=O)N3CCC(C(=O)N(C)Cc4ccco4)CC3)cc2NC1=O (centres undefined),800
4,O=C(CN1C(=O)CSc2cccn2-c2ccccc21)NCc1ccc(F)cc1,866
5,COc1ccc(NC(=O)COc2cc(C)nc(N3CCCC3)n2)cc1Cl,653
6,COc1ccc(-c2noc(-c3cccnc3N3CCN(Cc4ccccc4)CC3)n2)cc1,760
7,O=S(=O)(c1ccc(F)c(F)c1)N1CCc2nc(-c3ccc(F)cc3)ncc2C1,1110
8,CCN(CC)c1nc2ccsc2c(=O)n1CCC(=O)NCc1ccccc1F,823
9,COc1ccc(-c2csc(Nc3ccc(S(=O)(=O)Nc4cc(C)on4)cc3)n2)cc1,939
10,COc1ccccc1NC(=O)CN1C(=O)NC2(CCC(C)CC2)C1=O (centres undefined),803
11,CCOC(=O)c1cc(S(=O)(=O)N2CCCC2C(=O)Nc2ccccc2)cn1C (centres undefined),903
12,CC(C)CC(=O)N1CCN(c2ccc(=O)n(-c3ccc(Cl)cc3)n2)CC1,809
13,O=C(CSc1nnc(-c2ccncc2)o1)N1CCCc2ccccc21,788
14,CCCCC(=O)Nc1ccc(N(C)CCc2c(C)nn(C)c2C)c(C(=O)O)c1,576
15,CCCn1cnc2cc(-c3noc(C4CC(=O)N(c5ccccc5)C4)n3)ccc21 (centres undefined),711
16,COc1ccccc1-c1noc(-c2nnn3c2COC(c2ccc(C)cc2C)C3)n1 (centres undefined),1250
17,Cc1ccc(-c2nc3ncccn3c2Nc2ccc(C)c(Cl)c2)cc1,910
18,COc1ccc(CCNC(=O)c2nnc(-c3ccc(S(=O)(=O)N4CCCC4)cc3)o2)cc1OC,824
19,O=C(Cn1ccn2nc(-c3ccccc3)c(CO)c2c1=O)Nc1cc(Cl)cc(Cl)c1,867
20,COCCN1C(=O)CC[C@]2(C(=O)NCc3ccc(OC)cc3OC)CCCC[C@@H]12,698
21,Cn1c(=O)c(N2CCC(NC(=O)NCCc3ccccc3)CC2)nc2ccccc21,857
22,CCc1ccc(C(=O)N2CCN(c3cc(-c4ccc(C)cc4)ncn3)CC2)cc1,731
23,CCN(CC)CCCn1c(C)cc2c(c1=O)C(c1ccccc1OC)C(C#N)=C(N)O2 (centres undefined),626

row,SMILES,RP-LC retention time [s]
1,Cc1ccc(CN2C(=O)NC3(CCN(C(=O)c4ccc[nH]4)CC3)C2=O)cc1,767
2,CCn1cnc2ccc(-c3noc(-c4ccc(OC)c(F)c4)n3)cc21,780
3,Cn1c(N2CCCC(C(=O)NCc3cccnc3)C2)cc(=O)n(C)c1=O (centres undefined),558
4,CCC(c1cccs1)N1C(=O)[C@H]2CN(S(=O)(=O)c3ccc(F)c(C)c3)C[C@H]2C1=O (some centres undefined),978
5,Cn1cc(-c2ccccc2)c2c1c(=O)n(C)c1nn(Cc3nc(-c4ccccc4)no3)c(=O)n21,1040
6,O=C(NCc1[nH]nc2ccccc12)c1cccc(Cl)c1,805
7,COc1ccc(-c2nnc(-c3ccc(-n4ccnc4)nc3)o2)cc1F,642
8,CN(C)c1cc(C(=O)NCc2ccncc2)nc2ccnn12,581
9,COCCN1C(=O)CCc2cc(NS(=O)(=O)c3ccccc3)ccc21,716
10,Cn1ncc2c3ccccc3n(CC(=O)NCCCN3CCCCC3)c2c1=O,580
11,Cn1c(=O)n(C)c2cc(N3CCCCC3)c(NC(=O)c3ccco3)cc21,872
12,COc1ccccc1N1CCN(CCNC(=O)Nc2ccc3c(c2)OCO3)CC1,569
13,COc1ccc(NC(=O)Nc2cccn3c(C4CCC4)nnc23)cc1OC,718
14,COc1cccc(-c2noc(C3CCCN3C(=O)Nc3ccc(OC)c(Cl)c3)n2)c1 (centres undefined),974
15,O=C(CSc1nnnn1-c1cccc(C(F)(F)F)c1)N1CCOCC1,733
16,O=C(NC1CC1)c1ccc(-c2ccc(N3CCCCC3)nc2)cc1,613
17,Cc1cc(Cl)ccc1S(=O)(=O)Nc1ccc(Cn2cncn2)cc1,782
18,CC(C)NC(=O)C1CC(=O)N(c2n[nH]c3cccc(F)c23)C1 (centres undefined),621
19,O=c1ccc(-c2nc(-c3ccc4c(c3)OCO4)no2)cn1Cc1cc(=O)n2ccccc2n1,740
20,COc1cccc2nc3cc(C)c(C)cc3nc12,868
21,COC(=O)CNC(=O)NCC(=O)N1CCc2ccccc21,647
22,N#Cc1ccc(-c2nc(C3CC(=O)N(c4ccc(Cl)cc4)C3)no2)cc1 (centres undefined),996
23,CN1CCC(OC2CCN(C(=O)c3ccc(Br)o3)CC2)CC1,597

row,SMILES,RP-LC retention time [s]
1,Cc1cc(C)cc(NC(=O)N2CCC(n3cnc4c(C)cccc4c3=O)CC2)c1,911
2,CC(C)c1ccc(S(=O)(=O)N2CCc3c(c(-c4nnc(-c5ccccc5F)o4)nn3C)C2)cc1,1070
3,CCOc1ccc(-n2c(=O)c3sccc3n(Cc3nc(-c4ccccc4C)no3)c2=O)cc1,1070
4,Cc1ccc(NC(=O)Cn2nc3n(c2=O)CCCCC3)cc1,708
5,O=C(c1cn(Cc2ccccc2)cc2c(=O)n(-c3ccccc3)nc1-2)N1CCc2ccccc21,916
6,Cc1cnc(-c2ccccc2)n1C1CN(S(=O)(=O)c2cccs2)C1,653
7,CCCCOc1ccc(-c2cc3c4nn(CC(=O)NC(C)C)c(=O)n4ccn3n2)cc1,954
8,CCOc1ccccc1C(=O)NCC1CCN(Cc2ccccn2)CC1,561
9,O=C(c1ccc2ccccc2n1)N1CCN(C(=O)N2C[C@H]3C[C@H](C2)[C@H]2CCCC(=O)N2C3)CC1,650
10,CC(C)(C)c1ccc(S(=O)(=O)N2CCCC(CNC(=O)c3ccccc3)C2)cc1 (centres undefined),1080
11,Cc1ccc(-c2cn(CC(=O)Nc3cc(C)ccc3C)c(=O)o2)cc1,954
12,COc1ccc(NC(=O)C2CC(=O)N(c3ccc4c(c3)CCN4C(C)=O)C2)cc1OC (centres undefined),642
13,O=C(c1ccc(OCC2CCCN2C(=O)C2CCC2)cc1)N1CCCC1 (centres undefined),783
14,Cc1nnc(-c2nnc(N3CCN(c4ccccn4)CC3)c3ccccc23)o1,611
15,CSc1ccc(Cl)c(C(=O)Nc2cccn3c(C4CCC4)nnc23)c1,911
16,O=C(CC1CCN(C(=O)Nc2ccccc2F)CC1)N1CCCCC1,709
17,Cc1ccc(-c2nc(-c3ccc4c(c3)nc(C)c(=O)n4C)no2)c(C)c1,1220
18,Cc1cc(N2CCOCC2)nc(N2CCN(C(=O)CCC3CCCCC3)CC2)n1,714
19,Cc1ccc(C(=O)N2CCC(Nc3ncnc4c3CCC4)CC2)cn1,583
20,COc1ccc2c(CCNC(=O)c3ccccc3OC)c[nH]c2c1,788
21,COCCOCc1nc(C2CCCCN2C(=O)NC(C)C)no1 (centres undefined),667
22,CCn1c(=O)sc2cc(S(=O)(=O)N3CCC(C(=O)N4CCCC4)CC3)ccc21,761
23,Cc1cc(NC(=O)CSc2[nH]c(=O)ncc2C)on1,567

row,SMILES,RP-LC retention time [s]
1,O=C(O)CCc1conc1-c1ccccc1F,712
2,CCn1c(N2CCCC(C(=O)NCc3ccco3)C2)cc(=O)n(C)c1=O (centres undefined),731
3,CCOc1ccccc1C(=O)NCC(c1ccc(N(C)C)cc1)N(C)C (centres undefined),572
4,COc1ccc(C(C)NC(=O)c2nc(N(C)C)c3c(C)cc(C)nc3n2)cc1 (centres undefined),658
5,COc1ccc(NC(=O)Cn2nc3cc(C)nc(Nc4ccc(F)c(C)c4)n3c2=O)cc1,1070
6,O=C(NCCn1ccc2ccccc21)C(=O)c1cn(CC(=O)N2CCOCC2)c2ccccc12,871
7,Cc1nc(-c2cc(S(=O)(=O)Nc3ccc(F)c(F)c3)c(C)s2)sc1C,1100
8,CC(C)C(NC(=O)c1ccco1)c1nc(-c2ccc3c(c2)ncn3C2CCCC2)no1 (centres undefined),741
9,CC(C)c1ccc(S(=O)(=O)N2CCC(C(=O)NCc3csc(-c4ccccc4)n3)CC2)cc1,1070
10,Cc1ccc(CN2C[C@@H]3C(=O)N(Cc4ccc5c(c4)OCO5)C(=O)[C@@H]3C2)c(C)c1,857
11,Cc1ccccc1OCc1nc(CCN(C)C(=O)Cc2cccs2)no1,924
12,O=S(=O)(c1cc(F)ccc1F)N1CCc2nc(-c3ccccc3)ncc2C1,1070
13,Cc1csc(NC(=O)C2CCN(S(=O)(=O)c3cc(-c4noc(C)n4)ccc3Cl)CC2)n1,899
14,Cc1cccc(S(=O)(=O)NC2CCN(c3ccccc3)C2=O)c1 (centres undefined),875
15,COC(=O)CNC(=O)NC(C(=O)N1CCc2ccccc21)C(C)C (centres undefined),740
16,COCCn1cc(CCNC(=O)Nc2ccc(F)cc2F)c2cccnc21,729
17,Cn1c(C2CCN(C(=O)Nc3ccccc3F)CC2)cc(=O)n2nccc12,622
18,O=C1CC(c2ccc(O)cc2)c2c(c(C(=O)O)cn2-c2cccc(C(F)(F)F)c2)N1 (centres undefined),746
19,Nc1cccc(N2CCn3c(nc4ccccc43)C2)c1,525
20,O=C(COc1ccccc1)N1CCN(Cc2ccccc2)c2ncccc21,884
